Assay results: patent US8580786B2, “Triazine derivatives and their therapeutical applications” (Nant Holdings IP, LLC, priority 2006, dated 2013)

The compounds below were run on MX-1 (human breast carcinoma) cells (assay: Cytotoxicity assay (Promega CellTiter Blue Cell Viability Assay), in vitro growth inhibition). Settings: MX1, MX-1 cells, 72 hrs exposure to compound, CellTiter Blue fluorescence readout, read-out: IC50 (μM), cytotoxicity of triazine derivatives.
Format: cell-based
Method: A cytotoxicity assay was quantitated using the Promega CellTiter Blue Cell Viability Assay. Briefly, cells (5000 cells/well) were plated onto 96-well microtiter plates in RPMI 1640 medium supplemented with 10% FBS and incubated at 37° C. in a humidified 5% CO2 atmosphere. After 24 hrs., cells were exposed to various concentrations of compound in DMSO and cultured for another 72 hrs. 100 ul of media were removed and 20 ul of Promega CellTiter Blue reagent were added to each well and shaken to mix. After 4 hours of incubation at 37° C. in a humidified 5% CO2 atmosphere, the plates were read at 544 ex/620 em. The fluorescence produced is proportional to the number of viable cells. After plotting fluorescence produced against drug concentration, the IC50 was calculated as the […] of the resulting non-linear regression.

Row | SMILES | IC50 [µM]
1 | Cc1nc(Cl)nc(Nc2ncc(C(=O)Nc3c(C)cccc3Cl)s2)n1 [Compound 4] | 12.2
2 | Cc1nc(Nc2ncc(C(=O)Nc3c(C)cccc3Cl)s2)nc(N2CCN(CCO)CC2)n1 [Compound 5] | 16
3 | Cc1nc(Nc2ncc(C(=O)Nc3c(C)cccc3Cl)s2)nc(N2CCN(c3ccncc3)CC2)n1 [Compound 6] | 2.6
4 | Cc1nc(Nc2ncc(C(=O)Nc3c(C)cccc3Cl)s2)nc(N2CCN(C)CC2)n1 [Compound 7] | 38.7
5 | Cc1nc(Nc2ncc(C(=O)Nc3c(C)cccc3Cl)s2)nc(N2CCOCC2)n1 [Compound 8] | 58.1
6 | Cc1nc(Cl)nc(Nc2ccc(Oc3ccc(Cl)cc3)cc2)n1 [Compound 9] | 19.1
7 | Cc1nc(Nc2ccc(Oc3ccc(Cl)cc3)cc2)nc(N2CCN(CCO)CC2)n1 [Compound 10] | 14.1
8 | Cc1nc(Nc2ccc(Oc3ccc(Cl)cc3)cc2)nc(N2CCN(c3ccncc3)CC2)n1 [Compound 11] | 1.4
9 | Cc1cccc(Cl)c1NC(=O)c1cnc(Nc2nc(Cl)nc(Nc3cnc(C(=O)Nc4c(C)cccc4Cl)s3)n2)s1 [Compound 12] | 237
10 | Cc1cccc(Cl)c1NC(=O)c1cnc(Nc2nc(Cl)nc(N3CCN(CCO)CC3)n2)s1 [Compound 13] | 171
11 | Cc1cccc(Cl)c1NC(=O)c1cnc(Nc2nc(N3CCN(c4ccncc4)CC3)nc(N3CCN(c4ccncc4)CC3)n2)s1 [Compound 14] | 131
